Test results from patent publication US11981658B2, “Substituted aminopyridine compounds as EGFR inhibitors” (YUHAN CORPORATION, priority 2021, dated 2024).
Read-outs that look alike come from different tables or passages of the source.

What was measured:
[1] = target: EGFR L858R/C797S (Homo sapiens, UniProt P00533, C797S/L858R); experiment: Biochemical EGFR kinase inhibition assay (Lance Ultra TR-FRET), double mutant L858R/C797S
Procedure, shortened: (§1)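 Kinase activity is measured by TR-FRET phosphopeptide detection. Compounds span 0.003 μM to 10 μM; the 1 h reaction at room temperature is quenched with EDTA, then labelled antibody (2 nM) is incubated 60 min before reading.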

[2] = target: EGFR Del19/T790M/C797S (Homo sapiens, UniProt P00533, C797S/DEL746-750/T790M); experiment: Biochemical EGFR kinase inhibition assay (Lance Ultra TR-FRET), triple mutant del19/T790M/C797S
Procedure, shortened: as §1

[3] = target: EGFR L858R/T790M/C797S (Homo sapiens, UniProt P00533, C797S/L858R/T790M); experiment: Biochemical EGFR kinase inhibition assay (Lance Ultra TR-FRET), triple mutant L858R/T790M/C797S
Procedure, shortened: as §1

[4] = target: EGFR Del19/C797S (Homo sapiens, UniProt P00533, C797S/DEL746-750); experiment: Biochemical EGFR kinase inhibition assay (Lance Ultra TR-FRET), double mutant del19/C797S
Procedure, shortened: as §1

[5] = target: EGFR wildtype (WT) (Homo sapiens, UniProt P00533); experiment: Biochemical EGFR kinase inhibition assay (Lance Ultra TR-FRET), wildtype
Procedure, shortened: as §1

[6] = IC50 L858R/C797S (nM), 100 μM ATP
[7] = Km ATP, read-out: IC50 L858R/C797S (nM), Km ATP
[8] = IC50 Del19/T790M/C797S (nM), 100 μM ATP
[9] = Km ATP, read-out: IC50 Del19/T790M/C797S (nM), Km ATP
[10] = IC50 L858R/T790M/C797S (nM), 100 μM ATP
[11] = Km ATP, read-out: IC50 L858R/T790M/C797S (nM), Km ATP
[12] = IC50 Del19/C797S (nM), 100 μM ATP
[13] = Km ATP, read-out: IC50 Del19/C797S (nM), Km ATP
[14] = Km ATP, read-out: IC50 WT (nM), Km ATP
[15] = Km ATP, read-out: IC50 L858R/C797S (nM) Km ATP
[16] = Km ATP, read-out: IC50 Del19/T790M/C797S (nM) Km ATP
[17] = Km ATP, read-out: IC50 L858R/T790M/C797S (nM) Km ATP
[18] = Km ATP, read-out: IC50 Del19/C797S (nM) Km ATP
[19] = Km ATP, read-out: IC50 WT (nM) Km ATP
[20] = ATP at Km, read-out: IC50 L858R/C797S (nM), Km ATP
[21] = ATP at Km, read-out: IC50 Del19/T790M/C797S (nM), Km ATP
[22] = ATP at Km, read-out: IC50 L858R/T790M/C797S (nM), Km ATP
[23] = ATP at Km, read-out: IC50 Del19/C797S (nM), Km ATP
[24] = ATP at Km, read-out: IC50 WT (nM), Km ATP

EGFR wildtype (WT), sequence (P00533 25-1210): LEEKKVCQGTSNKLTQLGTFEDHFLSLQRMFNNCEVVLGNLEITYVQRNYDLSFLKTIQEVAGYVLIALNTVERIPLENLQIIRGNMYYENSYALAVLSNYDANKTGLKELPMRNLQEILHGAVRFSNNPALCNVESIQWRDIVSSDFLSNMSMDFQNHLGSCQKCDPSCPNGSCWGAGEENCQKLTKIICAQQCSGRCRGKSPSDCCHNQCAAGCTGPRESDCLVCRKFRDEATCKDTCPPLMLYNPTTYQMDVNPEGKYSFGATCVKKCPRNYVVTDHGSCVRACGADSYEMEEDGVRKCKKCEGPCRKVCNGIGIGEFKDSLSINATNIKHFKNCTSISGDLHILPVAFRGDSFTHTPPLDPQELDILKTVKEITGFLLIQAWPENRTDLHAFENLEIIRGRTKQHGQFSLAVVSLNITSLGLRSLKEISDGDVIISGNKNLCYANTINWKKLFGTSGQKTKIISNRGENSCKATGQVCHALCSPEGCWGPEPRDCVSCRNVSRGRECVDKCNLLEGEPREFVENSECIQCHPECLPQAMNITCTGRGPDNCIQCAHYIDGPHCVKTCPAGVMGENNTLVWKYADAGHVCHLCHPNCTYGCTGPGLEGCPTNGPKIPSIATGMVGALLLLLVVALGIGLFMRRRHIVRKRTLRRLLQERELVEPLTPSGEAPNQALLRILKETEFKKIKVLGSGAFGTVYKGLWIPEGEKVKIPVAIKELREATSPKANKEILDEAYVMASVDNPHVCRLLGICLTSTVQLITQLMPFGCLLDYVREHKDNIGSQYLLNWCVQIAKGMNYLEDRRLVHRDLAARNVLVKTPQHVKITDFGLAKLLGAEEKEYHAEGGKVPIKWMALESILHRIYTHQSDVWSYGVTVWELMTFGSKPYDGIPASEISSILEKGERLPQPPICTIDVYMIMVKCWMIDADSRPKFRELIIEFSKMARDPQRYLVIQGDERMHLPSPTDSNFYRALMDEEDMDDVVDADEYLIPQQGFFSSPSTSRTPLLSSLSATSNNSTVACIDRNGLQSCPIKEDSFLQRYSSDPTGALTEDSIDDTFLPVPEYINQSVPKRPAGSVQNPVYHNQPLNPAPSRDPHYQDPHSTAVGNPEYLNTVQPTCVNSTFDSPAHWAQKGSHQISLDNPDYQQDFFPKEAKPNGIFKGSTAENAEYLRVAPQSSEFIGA
EGFR Del19/C797S, sequence (P00533 with tags, fused parts or gaps DEL746-750/C797S): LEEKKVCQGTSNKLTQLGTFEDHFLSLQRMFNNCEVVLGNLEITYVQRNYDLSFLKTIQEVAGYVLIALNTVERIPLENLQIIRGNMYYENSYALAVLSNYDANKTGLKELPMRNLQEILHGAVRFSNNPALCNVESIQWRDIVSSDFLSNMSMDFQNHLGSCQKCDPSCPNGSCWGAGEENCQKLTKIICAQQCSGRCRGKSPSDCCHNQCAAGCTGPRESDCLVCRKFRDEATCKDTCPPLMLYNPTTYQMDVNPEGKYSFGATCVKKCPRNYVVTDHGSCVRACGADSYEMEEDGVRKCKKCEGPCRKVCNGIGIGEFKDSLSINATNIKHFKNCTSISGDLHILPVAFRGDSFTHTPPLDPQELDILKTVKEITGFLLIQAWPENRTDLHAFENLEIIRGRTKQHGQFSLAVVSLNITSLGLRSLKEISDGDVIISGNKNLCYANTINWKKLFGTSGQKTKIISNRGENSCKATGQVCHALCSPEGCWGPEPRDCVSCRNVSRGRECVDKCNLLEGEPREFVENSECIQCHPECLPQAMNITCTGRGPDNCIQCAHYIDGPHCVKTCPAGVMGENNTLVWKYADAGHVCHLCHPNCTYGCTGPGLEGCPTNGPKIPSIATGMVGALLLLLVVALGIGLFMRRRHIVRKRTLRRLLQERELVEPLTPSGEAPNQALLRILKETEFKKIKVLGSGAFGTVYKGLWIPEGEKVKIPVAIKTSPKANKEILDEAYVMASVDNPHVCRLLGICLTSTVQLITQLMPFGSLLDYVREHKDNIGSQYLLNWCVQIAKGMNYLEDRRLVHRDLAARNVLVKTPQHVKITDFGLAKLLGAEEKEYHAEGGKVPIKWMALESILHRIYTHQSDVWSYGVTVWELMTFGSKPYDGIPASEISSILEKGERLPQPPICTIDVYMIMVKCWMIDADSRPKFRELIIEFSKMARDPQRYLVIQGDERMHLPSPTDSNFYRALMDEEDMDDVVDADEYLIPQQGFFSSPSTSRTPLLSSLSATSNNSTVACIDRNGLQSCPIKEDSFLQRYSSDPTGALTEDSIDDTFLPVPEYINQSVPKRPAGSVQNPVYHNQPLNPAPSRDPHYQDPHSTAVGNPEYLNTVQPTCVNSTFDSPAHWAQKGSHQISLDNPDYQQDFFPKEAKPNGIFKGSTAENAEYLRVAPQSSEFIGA
EGFR L858R/C797S, sequence (P00533 25-1210 C797S/L858R): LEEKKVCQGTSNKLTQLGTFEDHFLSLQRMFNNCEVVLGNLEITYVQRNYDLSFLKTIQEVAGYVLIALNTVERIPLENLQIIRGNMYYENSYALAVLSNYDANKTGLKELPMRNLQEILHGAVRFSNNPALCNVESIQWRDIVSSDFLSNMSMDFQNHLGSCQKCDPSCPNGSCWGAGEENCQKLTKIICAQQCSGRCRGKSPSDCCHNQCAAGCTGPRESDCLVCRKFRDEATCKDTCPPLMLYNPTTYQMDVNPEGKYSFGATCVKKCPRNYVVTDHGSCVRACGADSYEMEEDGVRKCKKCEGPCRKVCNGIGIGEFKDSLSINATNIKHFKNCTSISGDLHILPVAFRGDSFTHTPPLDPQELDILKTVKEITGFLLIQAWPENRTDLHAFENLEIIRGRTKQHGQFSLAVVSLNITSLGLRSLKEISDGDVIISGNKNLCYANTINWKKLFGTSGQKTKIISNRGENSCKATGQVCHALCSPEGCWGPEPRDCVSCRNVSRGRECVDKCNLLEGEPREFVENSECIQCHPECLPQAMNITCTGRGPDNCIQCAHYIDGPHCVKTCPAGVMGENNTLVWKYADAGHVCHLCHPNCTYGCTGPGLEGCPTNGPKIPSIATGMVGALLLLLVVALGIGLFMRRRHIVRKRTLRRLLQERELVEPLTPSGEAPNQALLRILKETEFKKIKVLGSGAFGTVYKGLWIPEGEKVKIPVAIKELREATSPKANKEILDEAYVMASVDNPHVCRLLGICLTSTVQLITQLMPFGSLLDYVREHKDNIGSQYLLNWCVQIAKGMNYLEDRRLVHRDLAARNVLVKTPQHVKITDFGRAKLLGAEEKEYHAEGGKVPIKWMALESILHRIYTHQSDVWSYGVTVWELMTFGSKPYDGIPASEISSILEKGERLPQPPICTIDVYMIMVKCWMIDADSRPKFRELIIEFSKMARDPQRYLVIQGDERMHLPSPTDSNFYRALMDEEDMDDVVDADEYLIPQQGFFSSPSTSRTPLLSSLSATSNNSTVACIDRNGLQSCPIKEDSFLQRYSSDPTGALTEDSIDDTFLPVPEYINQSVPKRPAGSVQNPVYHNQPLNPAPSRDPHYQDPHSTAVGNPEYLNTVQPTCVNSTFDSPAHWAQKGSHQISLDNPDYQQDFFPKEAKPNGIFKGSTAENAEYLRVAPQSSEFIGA
EGFR L858R/T790M/C797S, sequence (P00533 25-1210 T790M/C797S/L858R): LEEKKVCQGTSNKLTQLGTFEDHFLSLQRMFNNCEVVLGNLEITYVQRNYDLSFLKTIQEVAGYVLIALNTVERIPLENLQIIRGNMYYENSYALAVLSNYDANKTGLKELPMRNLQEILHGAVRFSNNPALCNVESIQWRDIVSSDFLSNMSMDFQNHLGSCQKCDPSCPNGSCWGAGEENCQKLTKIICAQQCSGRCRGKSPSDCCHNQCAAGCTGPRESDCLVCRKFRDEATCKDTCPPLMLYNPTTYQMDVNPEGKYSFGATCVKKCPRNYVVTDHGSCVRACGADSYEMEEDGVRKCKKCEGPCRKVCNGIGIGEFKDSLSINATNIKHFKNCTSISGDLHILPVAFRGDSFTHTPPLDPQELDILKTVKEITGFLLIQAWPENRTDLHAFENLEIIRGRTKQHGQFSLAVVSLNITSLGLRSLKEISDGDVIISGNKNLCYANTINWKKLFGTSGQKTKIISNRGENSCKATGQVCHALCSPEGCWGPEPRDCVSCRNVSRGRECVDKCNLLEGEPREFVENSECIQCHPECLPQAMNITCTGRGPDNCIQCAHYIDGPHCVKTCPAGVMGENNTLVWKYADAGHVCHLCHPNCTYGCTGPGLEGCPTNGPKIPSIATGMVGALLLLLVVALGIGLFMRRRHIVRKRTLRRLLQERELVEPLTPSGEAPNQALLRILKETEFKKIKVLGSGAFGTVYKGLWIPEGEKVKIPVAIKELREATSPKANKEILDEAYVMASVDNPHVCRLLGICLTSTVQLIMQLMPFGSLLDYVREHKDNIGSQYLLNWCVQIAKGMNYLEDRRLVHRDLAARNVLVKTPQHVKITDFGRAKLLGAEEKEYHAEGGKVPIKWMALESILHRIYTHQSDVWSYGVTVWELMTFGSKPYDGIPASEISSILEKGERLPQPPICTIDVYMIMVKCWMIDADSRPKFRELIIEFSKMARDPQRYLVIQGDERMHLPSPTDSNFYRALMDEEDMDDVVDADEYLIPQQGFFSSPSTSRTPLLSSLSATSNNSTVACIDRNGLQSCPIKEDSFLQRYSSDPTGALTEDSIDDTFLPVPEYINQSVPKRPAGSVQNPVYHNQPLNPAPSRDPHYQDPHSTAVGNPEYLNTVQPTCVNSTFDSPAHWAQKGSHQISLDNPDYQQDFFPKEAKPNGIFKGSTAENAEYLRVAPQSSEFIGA

IC50 [1, 6] [nM]	IC50 [1, 7] [nM]	IC50 [2, 8] [nM]	IC50 [2, 9] [nM]	IC50 [3, 10] [nM]	IC50 [3, 11] [nM]	IC50 [4, 12] [nM]	IC50 [4, 13] [nM]	IC50 ([5]; IC50 WT (nM), 100 μM ATP) [nM]	IC50 [5, 14] [nM]	IC50 [1, 15] [nM]	IC50 [2, 16] [nM]	IC50 [3, 17] [nM]	IC50 [4, 18] [nM]	IC50 [5, 19] [nM]	IC50 [1, 20] [nM]	IC50 [2, 21] [nM]	IC50 [3, 22] [nM]	IC50 [4, 23] [nM]	IC50 [5, 24] [nM]	SMILES
30.1	1.9	0.7	0.6	0.8	0.4	3.9	1.9	> 10000	9.7	–	–	–	–	–	–	–	–	–	–	O=S(=O)(C1CC1)n1cc(-c2nccc(Nc3cc(N[C@H]4CC[C@@H](CO)CC4)c(C#Cc4cnn(CCF)c4)cn3)n2)cn1 [Example 379, ((1s,4s)-4-((2-((2-(1-(Cyclopropylsulfonyl)-1H-pyrazol-4-yl)pyrimidin-4-yl)amino)-5-((1-(2-fluoroethyl)-1H-pyrazol-4-yl)ethynyl)pyridin-4-yl)amino)cyclohexyl)methanol]
16.6	3.3	0.2	0.2	0.2	0.1	0.6	1	> 10000	11.3	–	–	–	–	–	–	–	–	–	–	O=S(=O)(C1CC1)n1cc(-c2nccc(Nc3cc(N[C@H]4CC[C@@H](O)CC4)c(C#CC4COC4)cn3)n2)cn1 [Example 353, (1s,4s)-4-((2-((2-(1-(Cyclopropylsulfonyl)-1H-pyrazol-4-yl)pyrimidin-4-yl)amino)-5-(oxetan-3-ylethynyl)pyridin-4-yl)amino)cyclohexan-1-ol]
468	–	0.7	–	1.5	–	4.3	–	> 10000	–	–	–	–	–	–	–	–	–	–	–	CN1CCN(Cc2ccc(C#Cc3cnc(Nc4ccnc(-c5cnn(S(=O)(=O)C6CC6)c5)n4)cc3NC[C@H]3CC[C@H](O)CC3)cc2)CC1 [Example 361, (1 r,4r)-4-(((2-((2-(1-(Cyclopropylsulfonyl)-1H-pyrazol-4-yl)pyrimidin-4-yl)amino)-5-((4-((4-methylpiperazin-1-yl)methyl)phenyl)ethynyl)pyridin-4-yl)amino)methyl)cyclohexan-1-ol]
8.9	–	0.6	–	0.7	–	1.7	–	> 10000	–	1.1	0.5	0.2	1.4	20.3	–	–	–	–	–	Cn1cc(C#Cc2cnc(Nc3ccnc(-c4cnn(S(=O)(=O)C5CC5)c4)n3)cc2N[C@H]2CCC[C@H](O)C2)cn1 [Example 43, (1 S,3S)-3-((2-((2-(1-(Cyclopropylsulfonyl)-1H-pyrazol-4-yl)pyrimidin-4-yl)amino)-5-((1-methyl-1H-pyrazol-4-yl)ethynyl)pyridin-4-yl)amino)cyclohexan-1-ol]
130	–	1.9	–	3.1	–	12.4	–	> 10000	–	–	–	–	–	–	4.1	1.6	0.8	24.2	252	CC1(CO)CCN(c2cc(Nc3ccnc(-c4cnn(CC(F)F)c4)n3)ncc2C#Cc2cnn(C(F)(F)F)c2)CC1 [Example 267, (1-(2-((2-(1-(2,2-Difluoroethyl)-1H-pyrazol-4-yl)pyrimidin-4-yl)amino)-5-((1-(trifluoromethyl)-1H-pyrazol-4-yl)ethynyl)pyridin-4-yl)-4-methylpiperidin-4-yl)methanol]
68.2	–	0.8	–	2.4	–	9.9	–	> 10000	–	–	–	–	–	–	–	–	–	–	–	CN(C)CC1CCN(c2cc(Nc3ccnc(-c4cnn(S(=O)(=O)C5CC5)c4)n3)ncc2C#Cc2cnn(C)c2)CC1 [Example 295, 2-(1-(Cyclopropylsulfonyl)-1H-pyrazol-4-yl)-N-(4-(4-((dimethylamino)methyl)piperidin-1-yl)-5-((1-methyl-1H-pyrazol-4-yl)ethynyl)pyridin-2-yl)pyrimidin-4-amine]
9	–	0.1	–	0.3	–	0.6	–	3250	–	–	–	–	–	–	1.4	0.1	0.1	0.6	4.4	CN(C)CC1(C)CCN(c2cc(Nc3ccnc(-c4cnn(S(=O)(=O)C5CC5)c4)n3)ncc2C#Cc2cnn(C)c2)CC1 [Example 296, 2-(1-(Cyclopropylsulfonyl)-1H-pyrazol-4-yl)-N-(4-(4-((dimethylamino)methyl)-4-methylpiperidin-1-yl)-5-((1-methyl-1H-pyrazol-4-yl)ethynyl)pyridin-2-yl)pyrimidin-4-amine]
58.1	–	0.7	–	3	–	14	–	> 10000	–	4.2	0.7	0.8	10.4	41.7	–	–	–	–	–	O=S(=O)(C1CC1)n1cc(-c2nccc(Nc3cc(N4CCCC(O)C4)c(C#Cc4cnn(C5CCOCC5)c4)cn3)n2)cn1 (stereo not drawn) [Example 99, 1-(2-((2-(1-(Cyclopropylsulfonyl)-1H-pyrazol-4-yl)pyrimidin-4-yl)amino)-5-((1-(tetrahydro-2H-pyran-4-yl)-1H-pyrazol-4-yl)ethynyl)pyridin-4-yl)piperidin-3-ol]
104	–	3.2	–	4.8	–	7.9	–	> 10000	–	3	3.5	2.4	4.3	32	–	–	–	–	–	CC1(CO)CCN(c2cc(Nc3ccnc(-c4cnn(S(=O)(=O)C5CC5)c4)n3)ncc2C#Cc2cnn(C(F)(F)F)c2)CC1 [Example 101, (1-(2-((2-(1-(Cyclopropylsulfonyl)-1H-pyrazol-4-yl)pyrimidin-4-yl)amino)-5-((1-(trifluoromethyl)-1H-pyrazol-4-yl)ethynyl)pyridin-4-yl)-4-methylpiperidin-4-yl)methanol]
75	–	3.5	–	2.3	–	2.8	–	> 10000	–	–	–	–	–	–	3.7	4.8	3.2	1.6	39.4	O=S(=O)(C1CC1)n1cc(-c2nccc(Nc3cc(N[C@H]4CC[C@@H](CO)CC4)c(C#Cc4cnn(C(F)F)c4)cn3)n2)cn1 [Example 308, ((1s,4s)-4-((2-((2-(1-(Cyclopropylsulfonyl)-1H-pyrazol-4-yl)pyrimidin-4-yl)amino)-5-((1-(difluoromethyl)-1H-pyrazol-4-yl)ethynyl)pyridin-4-yl)amino)cyclohexyl)methanol]
12.9	2.1	0.3	0.2	0.6	0.1	1.3	1.4	2530	7.5	–	–	–	–	–	–	–	–	–	–	CC1(O)CCN(c2cc(Nc3ccnc(-c4cnn(S(=O)(=O)C5CC5)c4)n3)ncc2C#Cc2ncc(CN3CCOCC3)cn2)CC1 [Example 364, 1-(2-((2-(1-(Cyclopropylsulfonyl)-1H-pyrazol-4-yl)pyrimidin-4-yl)amino)-5-((5-(morpholinomethyl)pyrimidin-2-yl)ethynyl)pyridin-4-yl)-4-methylpiperidin-4-ol]
3.2	0.9	0.7	0.5	0.6	0.1	1.7	1.1	4900	10.7	–	–	–	–	–	–	–	–	–	–	CN1CCN(Cc2ccc(C#Cc3cnc(Nc4ccnc(-c5cnn(S(=O)(=O)C6CC6)c5)n4)cc3N[C@H]3CC[C@]4(CCC(=O)N4)CC3)cc2)CC1 [Example 362, (5s,8s)-8-((2-((2-(1-(Cyclopropylsulfonyl)-1H-pyrazol-4-yl)pyrimidin-4-yl)amino)-5-((4-((4-methylpiperazin-1-yl)methyl)phenyl)ethynyl)pyridin-4-yl)amino)-1-azaspiro[4.5]decan-2-one]
10.8	–	0.4	–	0.3	–	0.5	–	832	–	–	–	–	–	–	1	0.5	0.2	0.3	2.1	CC1(CO)CCN(c2cc(Nc3ccnc(-c4cnn(S(=O)(=O)C5CC5)c4)n3)ncc2C#Cc2cccnc2)CC1 [Example 260, (1-(2-((2-(1-(Cyclopropylsulfonyl)-1H-pyrazol-4-yl)pyrimidin-4-yl)amino)-5-(pyridin-3-ylethynyl)pyridin-4-yl)-4-methylpiperidin-4-yl)methanol]
